Blank lines part the entries; values can stand above or below the molecule they belong to.
Columns and labels:
[1] = dog, in vivo
Protocol: As a control formulation, enteric-coated (Eudragit® L100-55, Essen, Germany) capsules containing commercial Minirin® drug tablets (6 pieces containing 1.2 mg desmopressin in total) was given orally to the dog.
A 3D printed clamp containing a cavity for the suction patch containing 1.2 mg desmopressin, 1.2 mg PVA, and 5.7 mg NaTaC was attached to the dog's mucosa, ensuring similar conditions (i.e., enclosed environment, close contact to the mucosa, same sample preparation and loading) as the applied suction patch, but […] and without negative pressure and the resulting tissue deformation.
The dogs were anesthetized for the duration of the experiment (3 h). […] Blood samples were collected in K2EDTA tubes immediately followed by centrifugation at 1700 G for 10 min at 4° C. Subsequently, the plasma was stored in clear polypropylene vials at −80° C. until further analysis. The drug plasma concentration was evaluated using LC-MS/MS method. Briefly, an aliquot of 900 μL dog plasma sample was mixed with 10 μL internal standard (Goserelin; 25 ng/mL) and 300 μL 4% H3PO4 acidified water into 1.5 mL Eppendorf tubes. The plasma sample was then extracted using Oasis™ WAX solid-phase extraction cartridges. […] Samples were analyzed in TOF-MRM mode with a quantification limit of […]. […]

porcine buccal mucosa [2] = assay: ex vivo effect of hypobaric pressure on diffusion of marker molecule in porcine buccal mucosa; type: in vitro ADME; conditions: 54 μg Cy5, 2.1 mg C10, 1.2 mg PVA, pressure set to 30 kPa, 37° C., 3 h
Protocol: The device could continuously monitor and control the pressure inside the patch to a constant value, e.g., 30 kPa. For the application, the buccal tissue was prepared as described above and placed in a 6-well plate that is filled with DMEM buffer. […] Subsequently, the pressure was set by the reduction valve to 30 kPa and left in the 37° C. incubators for 3 h. Afterwards, the vacuum pump was turned off and the mucosal suction patches were detached. The tissue specimen was processed as described before for fluorescent imaging. The intensity of each image was converted to the equivalent of 150 ms exposure time to allow the comparability. When plotting the fluorescent intensity-distance profile, the absolute intensity was utilized instead of the normalized in order to compare the pressure-related permeation enhancing effects among different samples.

[3] = oral formulation, even in the presence of permeation enhancers; cited from earlier work
[4] = pharmacokinetic study of semaglutide mucosal suction patch in beagle dogs; type: in vivo; conditions: patch with 9 mg semaglutide, 1.2 mg PVA, 11.7 mg NaTaC
Protocol: Briefly, an aliquot of 900 μL dog plasma sample was mixed with 10 μL internal standard (Goserelin; 25 ng/mL) and 300 μL 4% H3PO4 acidified water into 1.5 mL Eppendorf tubes. The plasma sample was then extracted using Oasis™ WAX solid-phase extraction cartridges.
The drug plasma concentration was evaluated using an LC-MS/MS method as described in Example 11.

porcine buccal mucosa [5] = assay: ex vivo permeation of surrogates through porcine buccal mucosa with mucosal suction patch; type: in vitro ADME; conditions: patch with surrogate, 1.2 mg PVA, 5.7 mg NaTaC, 3 h
Protocol: Specimen were permeabilized with a 0.5% Trition™ X100 PBS buffered solution for 15 min, washed for 3 min in PBS and incubated with a PBS buffered solution of 0.1% iFluor™ 488-conjugated phalloidin (F-Actin stain) and 0.1% Hoechst 33342 (Nucleous stain) for 30 min.
Fluorescence images were obtained with a widefield microscope (Leica DMI 6000) at 20× magnification in the tile scan mode and merged to a single image. The specimen was excited at 590-650 nm and the emission filtered from 662-738 nm. To evaluate the penetration depth of the surrogate, images were processed as grayscale with Fiji-ImageJ™ software. Line profiles of the grayscale intensity were obtained by drawing multiple straight lines vertical to the surface of the mucosa lining. The obtained intensity-distance profiles were transferred to Microsoft Excel™ and MatLab™ for further processing. The autofluorescence was first corrected by subtracting the averaged baseline intensity multiplied by 3 times its standard deviation obtained from a lower laying region of the tissue. The maximum intensity was set to 100% and the corresponding distance value was set to zero to normalize the drug distribution profile. […]
The molecular weight range of administrable drugs was evaluated ex-vivo on porcine buccal mucosa tissue by applying drug surrogates with different molecular weights. […]

bioavailability higher than commercial tablets [1]: 35%
Molecule: NC(=O)CC[C@@H]1NC(=O)[C@H](Cc2ccccc2)NC(=O)[C@H](Cc2ccc(O)cc2)NC(=O)CCSSC[C@@H](C(=O)N2CCC[C@H]2C(=O)N[C@H](CCCN=C(N)N)C(=O)NCC(N)=O)NC(=O)[C@H](CC(N)=O)NC1=O [desmopressin]

effect of negative pressure on drug permeation (porcine buccal mucosa [2]): effectively enhanced the drug permeation
Molecule: Cy5

Molecule: octreotride
oral bioavailability [3]: 0.5-1%

Molecule: CC[C@H](C)[C@H](NC(=O)[C@H](Cc1ccccc1)NC(=O)[C@H](CCC(=O)O)NC(=O)[C@H](CCCCNC(=O)COCCOCCNC(=O)COCCOCCNC(=O)CC[C@H](NC(=O)CCCCCCCCCCCCCCCCC(=O)O)C(=O)O)NC(=O)[C@H](C)NC(=O)[C@H](C)NC(=O)[C@H](CCC(N)=O)NC(=O)CNC(=O)[C@H](CCC(=O)O)NC(=O)[C@H](CC(C)C)NC(=O)[C@H](Cc1ccc(O)cc1)NC(=O)[C@H](CO)NC(=O)[C@H](CO)NC(=O)[C@@H](NC(=O)[C@H](CC(=O)O)NC(=O)[C@H](CO)NC(=O)[C@@H](NC(=O)[C@H](Cc1ccccc1)NC(=O)[C@@H](NC(=O)CNC(=O)[C@H](CCC(=O)O)NC(=O)C(C)(C)NC(=O)[C@@H](N)Cc1cnc[nH]1)[C@@H](C)O)[C@@H](C)O)C(C)C)C(=O)N[C@@H](C)C(=O)N[C@@H](Cc1c[nH]c2ccccc12)C(=O)N[C@@H](CC(C)C)C(=O)N[C@H](C(=O)N[C@@H](CCCNC(=N)N)C(=O)NCC(=O)N[C@@H](CCCNC(=N)N)C(=O)NCC(=O)O)C(C)C [semaglutide]
plasma concentrations [4]: therapeutic relevant plasma concentrations

B1: Alexa647-Ovalbumin: Alexa647 dye linked to ovalbumin (≈5.5 nm, 45 kDa) (conjugate, UniProt P01012 2-386, looked up)
Ovalbumin: GSIGAASMEFCFDVFKELKVHHANENIFYCPIAIMSALAMVYLGAKDSTRTQINKVVRFDKLPGFGDSIEAQCGTSVNVHSSLRDILNQITKPNDVYSFSLASRLYAEERYPILPEYLQCVKELYRGGLEPINFQTAADQARELINSWVESQTNGIIRNVLQPSSVDSQTAMVLVNAIVFKGLWEKAFKDEDTQAMPFRVTEQESKPVQMMYQIGLFRVASMASEKMKILELPFASGTMSMLVLLPDEVSGLEQLESIINFEKLTEWTSSNVMEERKIKVYLPRMKMEEKYNLTSVLMAMGITDVFSSSANLSGISSAESLKISQAVHAAHAEINEAGREVVGSAEAGVDAASVSEEFRADHPFLFCIKHIATNAVLFFGRCVSP
modifications: Alexa647 dye
crossing of the mucosal epithelium (porcine buccal mucosa [5]): reach deep inside

From patent US20250017849A1 (ETH ZURICH, priority 2021, published 2025)
